Measurements as given in US20170196834A1, “PREPARATION AND APPLICATION OF FLAVONOL AS BRAIN-TARGETING SYNERGIST” (GUANGDONG PHARMACEUTICAL UNIVERSITY, priority 2014, published 2017).
One block for each compound: values may come before it.

How the values were obtained:
[1] = Vinpocetine, edaravone, oxiracetam in blood and brain tissue 0.5 h after intragastric administration, UPLC-MS (Example 6); assay type: in vivo; settings: rat, oral, SD rats, intragastric 100 mg/kg
Description: Treatment Group: LXN6, LXN7, LXN8 were made into suspensions respectively. Five SD rats were administered the suspensions at the dose of 100 mg/kg and the volume of 20 ml/kg by intragastric administration;
Control group: vinpocetine, edaravone, oxiracetam were made into suspension. Five SD rats were administered the suspension at the dose of 100 mg/kg and the volume of 20 ml/kg by intragastric administration;
The rats were drewd blood 0.5 h after administration, then sacrificed under anaesthesia. Brain tissues were taken to prepare brain homogenates. The content of active ingredient in the blood and brain tissues was detected by UPLC-MS.

[2] = test system: MCAO forebrain ischemia; assay: MCAO forebrain ischemia rats, infarction area, nerve regeneration, learning and memory (Example 6); assay type: in vivo; settings: 100 mg vinpocetine/edaravone/oxiracetam per kg, intragastric, 7 days after administration
Description: In addition, 70 rats of MCAO forebrain ischemia were prepared, and they were administrated with solvent saline, or administrated with LXN6, LXN7 or LXN8, containing vinpocetine, edaravone or oxiracetam, respectively, at a dosage of 100 mg vinpocetine/edaravone/oxiracetam per kg body weight, or administrated with vinpocetine, edaravone or oxiracetam at a dosage of 100 mg/kg.
Intragastric administration at an amount of 20 ml/kg was conducted, for 10 rats per group; Animals were sacrificed 7 days after administration, to observe the improvement rate of cerebral infarction area and the improvement rate of nerve regeneration, learning and memory ability.

[3] = cited from earlier work
[4] = Levodopa in blood and brain tissues 0.5 h after intragastric administration, UPLC-MS (Example 7); assay type: in vivo; settings: rat, oral, SD rats, intragastric 100 mg/kg levodopa
Description: Five SD rats were administered the suspension at the dose of 100 mg/kg levodopa and the volume of 20 ml/kg by intragastric administration;
Control group: The levodopa was made into suspension. Five SD rats were administered the suspension at the dose of 100 mg/kg and the volume of 20 ml/kg by intragastric administration;
The rats were drew blood 0.5 h after administration, and then sacrificed under anaesthesia. Brain tissues were taken to prepare brain homogenates. The content of active ingredient in the blood and brain tissues was detected by UPLC-MS.

[5] = test system: 6-hydroxydopamine PD models; assay: 6-hydroxydopamine PD model rats, behavioural indexes; assay type: in vivo; settings: 6-hydroxydopamine PD rats, 100 mg/kg levodopa by gavage, 15 days
Description: Animals were administered for 15 days, to observe the changes of five indexes, including slow-moving test, grasping experiment, tail stiffness, change of tonic symptoms and tremor test.

[6] = test system: Parkinson's disease; assay: Clinical treatment of Parkinson's disease (LXN9, LXN10, levodopa); assay type: in vivo, human
Text: (1) Clinical Data and Methods • Same as above.
Profile of patients: All selected patients were from department of neurology, which diagnosed with Parkinson's disease according to the Parkinson's disease diagnostic criteria in clinical examination during 2010-2014. a total of 120 cases, including 66 males, 54 females; aged 50-78 years, and 62.8 years on average, with the shortest duration of 1 year, and longest duration of 13 years, 3.6 years on average.
Levodopa tablet group: (specification of 250 mg/tablet) 1 tablet/time, 3 times/d.
LXN 10 capsule group: 250 mg/capsule, 1 capsule per time, 3 times a day.
Fifteen days as a course in all groups, a total of 9 months for medication; and during the period, other drugs regulating cerebral vasodilation, brain cell metabolism and neurological functions were discontinued. […]

[7] = Rb1 in blood and brain tissues 0.5 h after intragastric administration, UPLC-MS (Example 1); assay type: in vivo; settings: SD rats, equivalent to ginsenoside Rb1 100 mg/kg, 0.5 h after administration
Description: Treatment Group: The LXN1-1 and LXN1-2 were made into suspension, administered to SD rats by intragastric administration. Five rats were given 20 ml/kg according to the dose of 125/150 mg/kg (equivalent to ginsenoside Rb1 100 mg/kg);
Control group: ginsenoside […] extract was made into suspension, administered to SD rats by intragastric administration. Five rats were given ginsenoside Rb1 at the volume of 20 ml/kg according to the dose of 100 mg/kg;
The rats were drew blood 0.5 h after administration and then sacrificed under anaesthesia. Brain tissues were taken to prepare brain homogenates. The content of TCM active ingredient in the blood and brain tissues was detected by UPLC-MS.

[8] = test system: MCAO forebrain ischemia; assay: MCAO forebrain ischemia rats, improvement rate of cerebral infarction area (Example 1); assay type: in vivo; settings: gavage, 7 days after administration
Description: In addition, […] of MCAO forebrain ischemia were prepared, and they were administered solvent saline, 100 mg/kg LXN1 or ginsenoside Rb1 by gavage at 20 ml/kg, 10 rats per group; Animals were sacrificed 7 days after administration, to observe the improvement rate of cerebral infarction area.

[9] = Stilbene glucoside in blood and brain tissues 0.5 h after intragastric administration, UPLC-MS (Example 3); assay type: in vivo; settings: SD rats, 100 mg/kg stilbene glucoside, 0.5 h after administration
Description: Treatment Group: LXN2-1 and LXN2-2 were made into suspension. 5 SD rats were administered the suspension with the dose of 100 mg/kg stilbene glucoside and the volume of 20 ml/kg by intragastric administration;
Control group: stilbene glucoside extract was made into suspension. 5 SD rats were administered the suspension at the dose of 100 mg/kg stilbene glucoside and the volume of 20 ml/kg by intragastric administration;
The rats were drew blood 0.5 h after administration and then sacrificed under anaesthesia. Brain tissues were taken to prepare brain homogenates. The content of stilbene glucoside in the blood and brain tissues were detected by UPLC-MS.

[10] = test system: 4-VO local cerebral ischemia; assay: 4-VO local cerebral ischemia rats, nerve regeneration, learning and memory (Example 3); assay type: in vivo; settings: 4-VO rats, gavage, 7 days after administration
Description: In addition, 40 rats of 4-VO local cerebral ischemia were prepared and they were administered with solvent saline, 100 mg/kg […], […] and stilbene glucoside by gavage at the volume of 20 ml/kg, 10 rats per group; Animals were sacrificed 7 days after administration, to observe the improve rate of nerve regeneration, learning and memory.

Compound: COc1ccc([C@@H]2CC(=O)c3c(O)cc(O[C@@H]4O[C@H](CO[C@@H]5O[C@@H](C)[C@H](O)[C@@H](O)[C@H]5O)[C@@H](O)[C@H](O)[C@H]4O)cc3O2)cc1O [Hesperidin]
- solubility in water [3]: insoluble in water

Compound: O=c1c(O)c(-c2ccc(O)cc2)oc2cc(O)cc(O)c12 [Kaempferol]
- solubility in water [3]: slightly soluble in water

Compound: CC(C)=CCC[C@](C)(O[C@@H]1O[C@H](CO[C@@H]2O[C@H](CO)[C@@H](O)[C@H](O)[C@H]2O)[C@@H](O)[C@H](O)[C@H]1O)[C@H]1CC[C@]2(C)[C@@H]1[C@H](O)C[C@@H]1[C@@]3(C)CC[C@H](O[C@@H]4O[C@H](CO)[C@@H](O)[C@H](O)[C@H]4O[C@@H]4O[C@H](CO)[C@@H](O)[C@H](O)[C@H]4O)C(C)(C)[C@@H]3CC[C@]12C [Rb1, ginsenoside Rb1]
- Rb1 content in brain tissues [7]: 4.12 ± 1.13 ng/g
- Rb1 plasma concentration [7]: 3.35 ± 0.68 µg/mL
- Improvement rate of cerebral infarction area [8]: 22.1 ± 9.1%

Compound: C[C@@H]1O[C@@H](OC[C@H]2O[C@@H](Oc3c(-c4ccc(O)c(O)c4)oc4cc(O)cc(O)c4c3=O)[C@H](O)[C@@H](O)[C@@H]2O)[C@H](O)[C@H](O)[C@H]1O [Rutin]
- solubility in boiling water ([3]; boiling water): soluble in boiling water
- solubility in water [3]: not soluble in water

Now from value to compound, other results behind:

- concentration at 0.5 h ([1]; blood, read-out: Edaravone content in the blood): 58300 ng/mL
- concentration at 0.5 h ([1]; brain, read-out: Edaravone content in the brain tissue): 128 ng/mL
Compound: CC1=NN(c2ccccc2)C(=O)C1 [Edaravone, edaravone]
- Improvement rate of learning and memory [2]: 45.1
- Infarction area [2]: 24.1%
- Nerve regeneration rate [2]: 80%
- Space exploration distance [2]: 51.0 cm

- concentration at 0.5 h ([4]; blood, read-out: levodopa Content in the blood): 114 µg/mL
- concentration at 0.5 h ([4]; brain, read-out: levodopa Content in the brain tissues): 0.284 µg/mL
Compound: N[C@@H](Cc1ccc(O)c(O)c1)C(=O)O [Levodopa, levodopa]
- Duration of slow-moving test [5]: 15.5 min
- EMG group discharge frequency [5]: 3.1 times/sec
- Grip Test Duration [5]: 40.1 min
- Muscle tremor frequency [5]: 10.1 times, minutes
- tail stiffness time [5]: 10.2 min
- Daily Living Activity (UPDRS-II) Score, 1 month after treatment ([6]; PD patients, n=40): 14.12 ± 5.31
- Daily Living Activity (UPDRS-II) Score, 3 months after treatment ([6]; PD patients, n=40): 12.49 ± 5.10
- Daily Living Activity (UPDRS-II) Score, 6 months after treatment ([6]; PD patients, n=40): 11.12 ± 3.31
- Daily Living Activity (UPDRS-II) Score, 12 months after treatment ([6]; PD patients, n=40): 10.32 ± 3.31
- Daily Living Activity (UPDRS-II) Score, Before treatment ([6]; PD patients, n=40): 15.61 ± 5.71
- daily life satisfaction (LSIB) scores, 1 month after treatment ([6]; PD patients, n=40): 13.11 ± 3.92
- daily life satisfaction (LSIB) scores, 3 months after treatment ([6]; PD patients, n=40): 14.91 ± 3.16
- daily life satisfaction (LSIB) scores, 6 months after treatment ([6]; PD patients, n=40): 16.85 ± 3.15
- daily life satisfaction (LSIB) scores, 12 months after treatment ([6]; PD patients, n=40): 17.24 ± 3.16
- daily life satisfaction (LSIB) scores, Before treatment ([6]; PD patients, n=40): 12.59 ± 2.02
- motor complications (UPDRS-IV) scores, 1 month after treatment ([6]; PD patients, n=40): 2.93 ± 0.86
- motor complications (UPDRS-IV) scores, 3 months after treatment ([6]; PD patients, n=40): 2.46 ± 0.61
- motor complications (UPDRS-IV) scores, 6 months after treatment ([6]; PD patients, n=40): 2.15 ± 0.56
- motor complications (UPDRS-IV) scores, 12 months after treatment ([6]; PD patients, n=40): 1.79 ± 0.56
- motor complications (UPDRS-IV) scores, Before treatment ([6]; PD patients, n=40): 3.59 ± 1.02
- motor function examination (UPDRS-III) scores, 1 month after treatment ([6]; PD patients, n=40): 34.16 ± 7.91
- motor function examination (UPDRS-III) scores, 3 months after treatment ([6]; PD patients, n=40): 28.91 ± 6.61
- motor function examination (UPDRS-III) scores, 6 months after treatment ([6]; PD patients, n=40): 24.85 ± 6.56
- motor function examination (UPDRS-III) scores, 12 months after treatment ([6]; PD patients, n=40): 21.15 ± 6.56
- motor function examination (UPDRS-III) scores, Before treatment ([6]; PD patients, n=40): 37.99 ± 10.23
- psychiatric, behavioral, and emotional scores (UPDRS-1), 1 month after treatment ([6]; PD patients, n=40): 3.15 ± 0.81
- psychiatric, behavioral, and emotional scores (UPDRS-1), 3 months after treatment ([6]; PD patients, n=40): 2.29 ± 0.73
- psychiatric, behavioral, and emotional scores (UPDRS-1), 6 months after treatment ([6]; PD patients, n=40): 1.85 ± 0.53
- psychiatric, behavioral, and emotional scores (UPDRS-1), 12 months after treatment ([6]; PD patients, n=40): 1.79 ± 0.59
- psychiatric, behavioral, and emotional scores (UPDRS-1), Before treatment ([6]; PD patients, n=40): 3.59 ± 1.02
- Curative effect for PD: Overall response rate (ORR) ([6]; clinically cured, markedly effective and effective cases): 80%
- Curative effect for PD: Clinically cured % ([6]; of 40 cases): 0%
- Curative effect for PD: Clinically cured n ([6]; of 40 cases): 0
- Curative effect for PD: Effective % ([6]; of 40 cases): 32.2%
- Curative effect for PD: Effective n ([6]; of 40 cases): 13
- Curative effect for PD: Ineffective % ([6]; of 40 cases): 20.0%
- Curative effect for PD: Ineffective n ([6]; of 40 cases): 8
- Curative effect for PD: Markedly effective % ([6]; of 40 cases): 47.8%
- Curative effect for PD: Markedly effective n ([6]; of 40 cases): 19

- concentration at 0.5 h ([1]; blood, read-out: Oxiracetam content in the blood): 82300 ng/mL
- concentration at 0.5 h ([1]; brain, read-out: Oxiracetam content in the brain tissue): 173 ng/mL
Compound: NC(=O)CN1CC(O)CC1=O (stereo not shown) [Oxiracetam, oxiracetam]
- Improvement rate of learning and memory [2]: 56.9
- Infarction area [2]: 24.5%
- Nerve regeneration rate [2]: 85%
- Space exploration distance [2]: 54.0 cm

- concentration at 0.5 h ([1]; blood, read-out: Vinpocetine content in the blood): 84400 ng/mL
- concentration at 0.5 h ([1]; brain, read-out: Vinpocetine content in the brain tissue): 124 ng/mL
Compound: CCOC(=O)C1=C[C@]2(CC)CCCN3CCc4c(n1c1ccccc41)[C@@H]32 [Vinpocetine, vinpocetine]
- Improvement rate of learning and memory [2]: 59.9
- Infarction area [2]: 23.1%
- Nerve regeneration rate [2]: 87%
- Space exploration distance [2]: 56.2 cm

- Content of stilbene glucoside in brain tissues [9]: 40.2 ± 16.1 ng/g
- Plasma concentration of stilbene glucoside [9]: 3.35 ± 0.68 µg/mL
Compound: stilbene glucoside
- Improvement rate of learning and memory [10]: 31.6 ± 21.0%
- Nerve regeneration rate [10]: 81.2 ± 35.6%
